# Measured values reported in ChEMBL document CHEMBL5052855, “Method for predicting sensitivity of cancer cell to gpx4 inhibitor” (2021).
# The source made the active and inactive calls. The rule behind the calls is not given here.
# How the values were obtained:
# SK-HEP1 = assay: Antitumor activity against human SK-HEP1 cells xenografted BALB/c nu mouse assessed as decrease in tumor volume at 100 mg/kg/day, po measured on the 18th day; assay type: functional, organism-based; conditions: time 18.0 day
# [1] = Antiproliferative activity against ARID1A/1B proficient human OVISE cells after 7 days by Cell-Titer Glo assay; assay type: functional, cell-based; conditions: 168 h
Compound,Activity (SK-HEP1),IC50 [1]
Cc1onc(C(=O)N2CCN(C(c3ccc(Cl)cc3)c3ccc(Cl)cc3)CC2)c1[N+](=O)[O-],Active,–
COC(=O)c1ccc([C@H]2c3[nH]c4ccccc4c3C[C@H](C(=O)OC)N2C(=O)CCl)cc1,–,< 3 nM
